Test results: US8119681B2, “2-[1-phenyl-5-hydroxy or methoxy-4alpha-methyl-hexahydrocyclopenta [ƒ]indazole-5-YL]ethyl phenyl derivatives as glucocorticoid receptor ligands” (Merck Sharp & Dohme Corp., priority 2006, dated 2012)

target: T1, glucocorticoid receptor (GR) (Homo sapiens, UniProt P04150); assay: Ligand binding assay (GR BIND), 3H-dexamethasone displacement, HeLa cell lysate; conditions: Table 1; HeLa cell lysate, 3H-DEX
T1 construct: endogenous in cells; host or cells: HeLa (ATCC) cell lysate supernatant
T1 sequence (P04150 1-777): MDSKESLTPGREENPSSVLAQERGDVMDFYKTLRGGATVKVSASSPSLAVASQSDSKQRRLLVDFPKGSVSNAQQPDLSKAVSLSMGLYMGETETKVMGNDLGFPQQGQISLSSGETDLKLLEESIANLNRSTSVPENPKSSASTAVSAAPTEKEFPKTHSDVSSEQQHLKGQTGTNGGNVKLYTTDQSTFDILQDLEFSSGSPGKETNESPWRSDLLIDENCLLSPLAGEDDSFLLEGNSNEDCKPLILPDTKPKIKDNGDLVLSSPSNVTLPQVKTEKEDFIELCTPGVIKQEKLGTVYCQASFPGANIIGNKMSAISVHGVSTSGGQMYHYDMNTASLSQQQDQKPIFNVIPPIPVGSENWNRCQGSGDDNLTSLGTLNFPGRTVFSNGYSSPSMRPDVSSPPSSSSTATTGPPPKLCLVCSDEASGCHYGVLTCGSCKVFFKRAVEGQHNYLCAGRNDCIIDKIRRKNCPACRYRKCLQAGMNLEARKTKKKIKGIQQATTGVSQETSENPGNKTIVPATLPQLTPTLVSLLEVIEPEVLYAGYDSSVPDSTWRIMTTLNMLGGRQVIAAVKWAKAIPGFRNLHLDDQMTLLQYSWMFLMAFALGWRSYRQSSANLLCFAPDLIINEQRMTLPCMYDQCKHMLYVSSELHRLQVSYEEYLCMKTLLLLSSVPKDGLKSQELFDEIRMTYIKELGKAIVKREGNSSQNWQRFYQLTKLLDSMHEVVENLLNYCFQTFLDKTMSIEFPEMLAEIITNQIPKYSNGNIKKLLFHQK
Protocol: Binding Buffer: TEGM (10 mM Tris-HCl, 1 mM EDTA, 10% glycerol, 1 mM beta-mercaptoethanol, 10 mM Sodium Molybdate, pH 7.2)
50% HAP Slurry: Calbiochem Hydroxylapatite, Fast Flow, in 10 mM Tris, pH 8.0 and 1 mM EDTA.
Wash Buffer: 40 mM Tris, pH7.5, 100 mM KCl, 1 mM EDTA and 1 mM EGTA.
Dexmethasone-methyl-^3H, (DEX*); (Amersham cat# TRK645)
Dexamethasone (DEX) (Sigma, cat# D1756):
Phenol red-free Trypsin-EDTA is diluted in the same PBS 1:10. The cell layers are rinsed with 1× Trypsin, extra Trypsin is poured out, and the cell layers are incubated at 37° C. for ˜2 min. The flask is tapped and checked for signs of cell detachment. Once the cells begin to slide off the flask, the complete media is added. The cells are counted at this point, then diluted to the appropriate concentration and split into flasks or dishes for further culturing (Usually 1:3 to 1:6 dilution).
Preparation of Hela Cell Lysate
The cell pellet is washed twice with TEGM (10 mM Tris-HCl, 1 mM EDTA, 10% glycerol, 1 mM beta-mercaptoethanol, 10 mM Sodium Molybdate, pH 7.2). After the final wash, the cells are resuspended in TEGM at a concentration of 10^7 cells/mL. The cell suspension is snap frozen in liquid nitrogen or ethanol/dry ice bath and transferred to −80° C. freezer on dry ice. Before setting up the binding assay, the frozen samples are left on ice-water to just thaw (˜1 hr). Then the samples are centrifuged at 12,500 g to 20,000 g for 30 min at 4° C. The supernatant is used to set-up assay right away. If using 50 μL of supernatant, the test compound can be prepared in 50 μL of the TEGM buffer.
Procedure for Multiple Compound Screening
1×TEGM buffer is prepared, and the isotope-containing assay mixture is prepared in the following order: EtOH (2% final concentration in reaction), 3H-DEX (Amersham Biosciences) and 1×TEGM. [e.g. For 100 samples, 200 μL (100×2) of EtOH+4.25 μL of 1:10 ^3H-Dex stock+2300 μL (100×23) 1×TEGM]. The compound is serially diluted, e.g., if starting final conc. is 1 μM, and the compound is in 25 μL of solution, for duplicate samples, 75 μL of 4×1 μM solution is made and 3 μL of 100 μM is added to 72 μL of buffer, and 1:5 serial dilution.
25 μL of ^3H-DEX (6 nM) trace and 25 μL compound solution are first mixed together, followed by addition of 50 μL receptor solution. The reaction is gently mixed, spun briefly at about 200 rpm and incubated at 4° C. overnight. 100 μL of 50% HAP slurry is prepared and added to the incubated reaction which is then vortexed and incubated on ice for 5 to 10 minutes. The reaction mixture is vortexed twice more to resuspend HAP while incubating reaction. The samples in 96-well format are then washed in wash buffer using The FilterMate™ Universal Harvester plate washer (Packard). The washing process transfers HAP pellet containing ligand-bound expressed receptor to Unifilter-96 GF/B filter plate (Packard). The HAP pellet on the filter plate is incubated with 50 μL of MICROSCINT (Packard) scintillant for 30 minutes before being counted on the TopCount microscintillation counter (Packard). IC50s are calculated using DEX as a reference.

In order of falling Ki:
1. CC(O)(C(N)=O)c1ccccc1CC[C@]1(O)CCC2=Cc3c(cnn3-c3ccc(F)cc3)C[C@@]21C (single isomer, unassigned) [Example 150]  11 nM
2. CC(=O)Nc1ccccc1CC[C@]1(O)CCC2=Cc3c(cnn3-c3ccc(F)cc3)C[C@@]21C [Example 14, N-(2-{2-[(4αS,5R)-1-(4-fluorophenyl)-5-hydroxy-4α-methyl-1,4,4α,5,6,7-hexahydrocyclopenta[f]indazol-5-yl]ethyl}phenyl)acetamide]  6.38 nM
3. CC1(NC(=O)c2ccccc2CC[C@]2(O)CCC3=Cc4c(cnn4-c4ccccc4)C[C@@]32C)CC1 [Example 34, 2-{2-[(4αS,5R)-5-hydroxy-4α-methyl-1-phenyl-1,4,4α,5,6,7-hexahydrocyclopenta[f]indazol-5-yl]ethyl}-N-(1-methylcyclopropyl)benzamide]  5.29 nM
4. CNC(=O)Cc1ccccc1CC[C@]1(O)CCC2=Cc3c(cnn3-c3ccc(F)cc3)C[C@@]21C [Example 23, 2-(2-{2-[(4αS,5R)-1-(4-fluorophenyl)-5-hydroxy-4α-methyl-1,4,4α,5,6,7-hexahydrocyclopenta[f]indazol-5-yl]ethyl}phenyl)-N-methylacetamide]  5.09 nM
5. CC1(NC(=O)c2ccccc2CC[C@]2(O)CCC3=Cc4c(cnn4-c4ccc(F)cc4)C[C@@]32C)CC1 [Example 28, 2-{2-[(4αS,5R)-1-(4-fluorophenyl)-5-hydroxy-4α-methyl-1,4,4α,5,6,7-hexahydrocyclopenta[f]indazol-5-yl]ethyl}-N-(1-methylcyclopropyl)benzamide]  3.55 nM
6. CC(C)NC(=O)c1ccccc1CC[C@]1(O)CCC2=Cc3c(cnn3-c3ccc(F)cc3)C[C@@]21C [Example 35, 2-{2-[(4αS,5R)-1-(4-fluorophenyl)-5-hydroxy-4α-methyl-1,4,4α,5,6,7-hexahydrocyclopenta[f]indazol-5-yl]ethyl}-N-isopropylbenzamide]  3.55 nM
7. C[C@]12Cc3cnn(-c4ccc(F)cc4)c3C=C1CC[C@@]2(O)CCc1ccccc1C(F)C(N)=O (single isomer, unassigned) [Example 198]  2.44 nM
8. C[C@]12Cc3cnn(-c4ccc(F)cc4)c3C=C1CC[C@@]2(O)CCc1ccccc1N1CCC1=O [Example 11, 1-(2-{2-[(4αS,5R)-1-(4-fluorophenyl)-5-hydroxy-4α-methyl-1,4,4α,5,6,7-hexahydrocyclopenta[f]indazol-5-yl]ethyl}phenyl)azetidin-2-one]  2.37 nM
9. CCNC(=O)c1ccccc1CC[C@]1(O)CCC2=Cc3c(cnn3-c3ccc(F)cc3)C[C@@]21C [Example 2, N-ethyl-2-{2-[(4αS,5R)-1-(4-fluorophenyl)-5-hydroxy-4α-methyl-1,4,4α,5,6,7-hexahydrocyclopenta[f]indazol-5-yl]ethyl}benzamide]  2.08 nM
10. CC(C(N)=O)c1ccccc1CC[C@]1(O)CCC2=Cc3c(cnn3-c3ccc(F)cc3)C[C@@]21C (single isomer, unassigned) [Example 196]  1.8 nM
11. CCCNC(=O)c1ccccc1CC[C@]1(O)CCC2=Cc3c(cnn3-c3ccc(F)cc3)C[C@@]21C [Example 30, 2-{2-[(4αS,5R)-1-(4-fluorophenyl)-5-hydroxy-4α-methyl-1,4,4α,5,6,7-hexahydrocyclopenta[f]indazol-5-yl]ethyl}-N-propylbenzamide]  1.52 nM
12. COC(=O)C1(NC(=O)c2ccccc2CC[C@]2(O)CCC3=Cc4c(cnn4-c4ccc(F)cc4)C[C@@]32C)CC1 [Example 26, methyl 1-[(2-{2-[(4αS,5R)-1-(4-fluorophenyl)-5-hydroxy-4α-methyl-1,4,4α,5,6,7-hexahydrocyclopenta[f]indazol-5-yl]ethyl}benzoyl)amino]cyclopropanecarboxylate]  1.37 nM
13. C[C@]12Cc3cnn(-c4ccc(F)cc4)c3C=C1CC[C@@]2(O)CCc1ccccc1NS(=O)(=O)C1CC1 [Example 15, N-(2-{2-[(4αS,5R)-1-(4-fluorophenyl)-5-hydroxy-4α-methyl-1,4,4α,5,6,7-hexahydrocyclopenta[f]indazol-5-yl]ethyl}phenyl)cyclopropanesulfonamide]  1.17 nM
14. CC(C)CNC(=O)c1ccccc1CC[C@]1(O)CCC2=Cc3c(cnn3-c3ccc(F)cc3)C[C@@]21C [Example 29, 2-{2-[(4αS,5R)-1-(4-fluorophenyl)-5-hydroxy-4α-methyl-1,4,4α,5,6,7-hexahydrocyclopenta[f]indazol-5-yl]ethyl}-N-isobutylbenzamide]  1.14 nM
15. C[C@]12Cc3cnn(-c4ccc(F)cc4)c3C=C1CC[C@@]2(O)CCc1ccccc1S(C)(=O)=O [Example 19, (4αS,5R)-1-(4-fluorophenyl)-4α-methyl-5-{2-[2-(methylsulfonyl)phenyl]ethyl}-1,4,4α,5,6,7-hexahydrocyclopenta[f]indazol-5-ol]  1.13 nM
16. C=CCNC(=O)c1ccccc1CC[C@]1(O)CCC2=Cc3c(cnn3-c3ccc(F)cc3)C[C@@]21C [Example 33, N-allyl-2-{2-[(4αS,5R)-1-(4-fluorophenyl)-5-hydroxy-4α-methyl-1,4,4α,5,6,7-hexahydrocyclopenta[f]indazol-5-yl]ethyl}benzamide]  1.13 nM
17. CC(CNC(=O)c1ccccc1CC[C@]1(O)CCC2=Cc3c(cnn3-c3ccc(F)cc3)C[C@@]21C)C(F)(F)F (stereo partly drawn) [Example 31, 2-{2-[(4αS,5R)-1-(4-fluorophenyl)-5-hydroxy-4α-methyl-1,4,4α,5,6,7-hexahydrocyclopenta[f]indazol-5-yl]ethyl}-N-(3,3,3-trifluoro-2-methylpropyl)benzamide]  0.9 nM
18. C=C(C)CNC(=O)c1ccccc1CC[C@]1(O)CCC2=Cc3c(cnn3-c3ccc(F)cc3)C[C@@]21C [Example 32, 2-{2-[(4αS,5R)-1-(4-fluorophenyl)-5-hydroxy-4α-methyl-1,4,4α,5,6,7-hexahydrocyclopenta[f]indazol-5-yl]ethyl}-N-(2-methylprop-2-en-1-yl)benzamide]  0.49 nM
19. C[C@]12Cc3cnn(-c4ccc(F)cc4)c3C=C1CC[C@@]2(O)CCc1ccccc1CNS(=O)(=O)C1CC1 [Example 5, N-(2-{2-[(4αS,5R)-1-(4-fluorophenyl)-5-hydroxy-4α-methyl-1,4,4α,5,6,7-hexahydrocyclopenta[f]indazol-5-yl]ethyl}benzyl)cyclopropanesulfonamide]  0.44 nM

same assay, conditions: Table 2; prior-art comparison compounds

In order of rising Ki:
1. C[C@]12Cc3cnn(-c4ccc(F)cc4)c3C=C1CCC[C@@H]2[C@@H](O)Cc1ccccc1 [Example 22 WO 03/086294 A2, reference compound]  1.27 nM
2. C[C@]12Cc3cnn(-c4ccc(F)cc4)c3C=C1CC[C@@]2(O)CCc1ccccc1 [Example 2 WO 2004/075840 A2, reference compound]  5.24 nM
